Test results as given in patent US9403806B1, “Cognition enhancing compounds and compositions, methods of making, and methods of treating” (NeuroSolis, Inc., priority 2010, dated 2016).
Read-outs that look alike come from different tables or passages of the source.

Columns and labels:
[1] = test system: pooled male human liver microsomes; experiment: Metabolism by human liver microsomes, Example 33; assay type: in vitro ADME; conditions: for metabolism in human liver microsomes (in words): 6 hours incubation (FIGS. 4A, 4B); for rate of metabolism of S- versus R-enantiomer: human liver microsomes, as also in rat liver microsomes and FMO Supersomes
Protocol: Compounds were incubated with pooled male human liver microsomes (BD Biosciences, #452172) and an NADP-regenerating system in a phosphate buffer (pH 7.4) for a total of 6 hours. Aliquots were removed every 2 hours, and 1% formic acid was added to halt the reaction. Samples were centrifuged, filtered through 0.2 micron spinfilter and the amount of each compound in the supernatants was quantitated using LC/MS/MS.

[2] = target: T1, human muscarinic M3 receptors (Homo sapiens, UniProt P20309); experiment: IP production in A9L cells with human M3 receptors (IPOne TR-FRET), Example 28; assay type: cell-based; conditions: for huM3/A9L Smax: percentage of maximal stimulation by carbachol; for huM3/A9L ED50 relative to CCh*: potency relative to carbachol at its EC50, semi-quantitative
T1 construct: host or cells: A9L cells
T1 sequence (P20309 whole entry): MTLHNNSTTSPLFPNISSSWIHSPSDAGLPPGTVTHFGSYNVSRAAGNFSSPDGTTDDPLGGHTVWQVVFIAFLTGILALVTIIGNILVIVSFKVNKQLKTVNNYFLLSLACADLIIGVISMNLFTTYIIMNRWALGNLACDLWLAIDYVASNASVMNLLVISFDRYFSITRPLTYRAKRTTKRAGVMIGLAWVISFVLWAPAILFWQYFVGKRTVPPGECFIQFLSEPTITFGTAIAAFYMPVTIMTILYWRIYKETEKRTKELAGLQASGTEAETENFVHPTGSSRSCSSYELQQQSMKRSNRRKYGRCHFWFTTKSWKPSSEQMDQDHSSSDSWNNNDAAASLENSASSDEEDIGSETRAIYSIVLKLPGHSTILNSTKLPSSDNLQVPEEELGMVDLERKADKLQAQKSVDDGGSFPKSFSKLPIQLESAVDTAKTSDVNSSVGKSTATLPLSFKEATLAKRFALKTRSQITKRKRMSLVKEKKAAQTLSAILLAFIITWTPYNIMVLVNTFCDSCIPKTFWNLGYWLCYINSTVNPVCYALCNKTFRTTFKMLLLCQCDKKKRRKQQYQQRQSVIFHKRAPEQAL
Protocol: (§1) Muscarinic M1 and M3 agonist activity was evaluated by measuring the stimulation of inositol phosphate (IP) production in the presence of lithium chloride from A9L cells transfected with expression plasmids containing human muscarinic M1 and M3 receptors, respectively. The cell lines were a gift from Professor W Messer, and the methods were as described in Tejada F R et al. J. Med. Chem. 2006; 49: 7518-31 except that the assay was scaled down to run in 384 well plates, and IP was measured in the cell lysates using the non-isotopic IPOne TR-FRET assay (CIS-BIO, Inc).
(§2) Cells were grown to 90% confluence in 384 well hi-base plates (Greiner Bio-One), compounds were added at suitable concentrations in growth medium containing 10 mM LiCl, buffered with an extra 10 mM HEPES (pH7.4), and incubated for 60 minutes at 37° C. Cells were lysed and assayed for IP following the manufacturer's instructions.
(§3) The value for a full agonist is 100%, while partial agonists give values below 100%.

[3] = target: T2, human muscarinic M1 receptors (Homo sapiens, UniProt P11229); experiment: IP production in A9L cells with human M1 receptors (IPOne TR-FRET), Example 28; assay type: cell-based; conditions: for huM1/A9L Smax: percentage of maximal stimulation by carbachol; for huM1/A9L ED50 relative to CCh*: potency relative to carbachol at its EC50, semi-quantitative
T2 construct: host or cells: A9L cells
T2 sequence (P11229 1-460): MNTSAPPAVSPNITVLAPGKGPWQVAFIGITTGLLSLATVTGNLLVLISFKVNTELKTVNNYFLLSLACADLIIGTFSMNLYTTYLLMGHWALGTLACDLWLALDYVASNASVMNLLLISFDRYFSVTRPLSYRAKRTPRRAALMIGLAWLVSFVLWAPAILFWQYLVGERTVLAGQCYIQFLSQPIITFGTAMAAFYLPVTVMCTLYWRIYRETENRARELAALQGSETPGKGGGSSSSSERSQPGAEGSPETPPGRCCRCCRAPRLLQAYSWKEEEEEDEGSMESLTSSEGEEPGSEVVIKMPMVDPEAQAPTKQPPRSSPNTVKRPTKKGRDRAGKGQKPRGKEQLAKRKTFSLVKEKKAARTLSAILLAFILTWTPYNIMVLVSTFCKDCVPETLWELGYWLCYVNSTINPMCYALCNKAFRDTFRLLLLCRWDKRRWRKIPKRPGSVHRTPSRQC
Protocol: as §1, §2, §3

[4] = target: T2, human muscarinic M1 receptors; assay type: cell-based; conditions: for huM1/A9L Smax: percentage of maximal stimulation by carbachol; for huM1/A9L Potency relative to carbachol: relative to the potency of carbachol at its EC50
Protocol: (§4) Muscarinic M1 and M3 agonist activity was evaluated by measuring the stimulation of inositol phosphate (IP) production in the presence of lithium chloride from A9L cells transfected with expression plasmids containing human muscarinic M1 and M3 receptors, respectively. The cell lines were a gift from Professor William Messer, and the methods were as described in Tejada et al. (J. Med. Chem. 2006; 49: 7518-31) except that the assay was scaled down to run in 384-well plates and the concentration of inositol-1-phosphate in the lysates was determined using the non-isotopic IP-One Terbium TR-FRET assay kit (Cisbio Bioassays, cat. #62IPAPEJ) according to the manufacturer's instructions.
(§5) Cells were grown to 90% confluence in 384-well high-base, small-volume plates (Greiner Bio-One), compounds were added at suitable concentrations in growth medium containing 10 mM LiCl, buffered with an extra 10 mM HEPES (pH=7.4), and incubated for 60 minutes at 37° C. Cells were lysed and assayed for IP following the manufacturer's instructions.
as §3

[5] = target: T1, human muscarinic M3 receptors; assay type: cell-based; conditions: for huM3/A9L Smax: percentage of maximal stimulation by carbachol; for huM3/A9L Potency relative to carbachol: relative to the potency of carbachol at its EC50
Protocol: as §4, §5, §3

in vitro = in vitro ADME; conditions: pH 7.4, 24 hours, room temperature
Protocol: PAMPA is a useful in vitro model for predicting the passive diffusion of drugs across the blood-brain barrier (Li, D et al Eur jour of Med Chem 38 (2003) 223-232).
Compounds were diluted in a 100 mM phosphate buffer (pH 7.4) to a concentration of 400 μM and the stock solutions were placed into a 96-well filter plate (Millipore, #MAIPN4510) pre-wetted with 20 mg/mL porcine brain polar lipid extract in 100% dodecane (Avanti, #131022) and placed into a 96-well acceptor plate (Millipore, #MSSACCEPTOR) whose wells were filled with the same phosphate buffer as in the filter plate. This assembly was incubated at room temperature for 24 hours. The experiment was halted by separating the filter plate from the acceptor plate. Aliquots were removed from the filter plate wells, acceptor plate wells, and stock solutions, and 1% trifluoroacetic acid was added to each. All solutions were measured by LC/UV, and passive diffusion rates were calculated using the peak area values (Avdeef, Alex. 2003. Page 147 in Absorption and Drug Development. Hoboken, N.J.: John Wiley & Sons).

[6] = test system: pooled male human liver microsomes; experiment: Metabolism in human liver microsomes, Example 45; assay type: in vitro ADME
Protocol: Aliquots were removed every 2 hours, and 1% formic acid was added to halt the reaction. Samples were centrifuged, filtered through 0.2 micron spinfilter, and the amount of each compound in the supernatants was quantitated using LC/MS/MS as follows. The ultra-filtrates were subjected to reverse-phase liquid chromatography using a 150×2.1 mm Agilent C8-reverse phase column on a Shimadzu Prominence LC, eluting the compound with a gradient of 2%-50% acetonitrile+0.1% formic acid over 5 minutes. The concentration of the compound in the column effluent was measured using an Applied Biosystems API-3200 triple quadrupole mass spectrometer equipped with a Turbo V source (electrospray sample injection) system. The counts of the characteristic parent ions of the protonated compound and product ions were converted to concentration by comparison with a standard calibration curve. The parent/daughter ion pairs that were monitored for each compound were: 166.0/82.0 (105), 166.0/82.0 (106b), 166.0/82.0 (106a), 169.0/83.0 (136), 168.2/83.0 (121), 168.1/83.0 (122a), 168.1/83.0 (122b), 170.2/83.0 (134), 168.2/84.1 (135), 168.1/84.1 (137) and 169.2/82.1 (138).

[7] = test system: muscarinic M3 receptors in the salivary glands; experiment: In vivo inositol phosphate increase in salivary glands, Example 44; design: species or system Long Evans Hooded rats; conditions: rat, 3 mg/kg sc, 5 mmole/kg LiCl
Protocol: (§6) In lithium chloride-treated laboratory rodents, engagement of muscarinic M1 receptors in the hippocampus may usefully be evaluated in vivo by measuring the increase in the tissue of inositol phosphate (Bymaster F P et al Brain Res 795 (1998) 179-190). This may also be extended to measure engagement of muscaric M3 receptors in the salivary glands.
(§7) Experimental compounds were administered subcutaneously at 3 mg/kg using standard techniques to Long Evans Hooded rats weighing 225 to 350 g, and which had been pretreated with a subcutaneous injection of lithium chloride at a suitable dose between 3 and 5 mmole/kg. At suitable times the animals were briefly anesthetized using 5% isoflurane and euthanized by decapitation. The brains and submaxillary salivary glands were rapidly dissected out, and the hippocampuses were dissected from the brains. The dissected tissues were homogenized in a suitable volume of ice-cold phosphate-buffered saline containing 10 mM lithium chloride (pH=7.4) using a tissue homogenizer, and used immediately or frozen in aliquots at −80° C. for future use. The concentration of inositol-1-phosphate was determined in the homogenates using the […] IP-One Terbium TR-FRET assay kit (Cisbio Bioassays, cat. #62IPAPEJ) according to the manufacturer's instructions.

[8] = Blood and brain concentrations (rats), tail vein injection; assay type: in vivo, Long-Evans Hooded rats; conditions: male, Long-Evans Hooded, rat, in vivo, 3 mg/kg, 3 mg/kg tail vein injection, read-out: Brain Concentration at 1 hr
Protocol: Long-Evans Hooded rats (Charles River: male, 230-300 g) were dosed with solutions of test compounds in PBS by tail vein injection. The dose for all compounds was 3 mg/kg. At one hour, the animals were anesthetized with isoflurane, and then euthanized by decapitation. Trunk blood was collected into a 1.5 mL microcentrifuge tube containing 15 U Heparin, and the plasma recovered after centrifugation. Brains were dissected, weighed, immediately chilled to 4° C., and homogenized using a PowerGen 125 homogenizer in five volumes of ice-cold 2% formic acid. Proteins were precipitated from plasma and brain homogenate with nine and five volumes respectively of ice-cold 2% formic acid and clarified by centrifugation. The supernatant was ultra-filtered by centrifugation through a 3K MWCO spin column (Pall Life Sciences), following the manufacturer's instructions. The concentration of compound in the ultra-filtrate was subjected to reverse-phase liquid chromatography using a 150×2.1 mm Agent C8 reverse-phase column on a Shimadzu Prominence LC, eluting the compounds with a gradient of 2% to 50% of acetonitrile+0.1% formic acid for all compounds. The concentration of the compound in the column effluent was measured using an Applied Biosystems API-3200 triple quadrupole mass spectrometer equipped with an electrospray sample injection system. The counts of the characteristic parent and product ions of each test compound were converted to concentration units by comparison with a standard curve.

[9] = test system: muscarinic M1 receptors in the hippocampus; experiment: In vivo inositol phosphate increase in hippocampus, Example 44; design: species or system Long Evans Hooded rats; conditions: rat, 3 mg/kg sc, 5 mmole/kg LiCl
Protocol: as §6, §7

Structure (SMILES) | metabolism in human liver microsomes (in words) [1] | huM3/A9L Smax [2] [%] | huM3/A9L ED50 relative to CCh* [2] | huM1/A9L Smax [3] [%] | huM1/A9L ED50 relative to CCh* [3] | huM1/A9L Smax [4] [%] | huM1/A9L Potency relative to carbachol [4] | huM3/A9L Smax [5] [%] | huM3/A9L Potency relative to carbachol [5] | Papp at 24 h, 400 µM (in vitro; PAMPA, pH 7.4, 400 μM, read-out: PAMPA Permeability Coefficient (×10^6)) [×10⁻⁶ cm/s] | Loss at 6 hrs (%) [6] [%] | Increase in Inositol Phosphate in Salivary Gland/Control [7] [%] | concentration at 1 h [8] [µM] | Increase in Inositol Phosphate in Hippocampus/Control [9] [%] | PAMPA Permeability Coefficient (×10^6) (in vitro; 400 μM) | Increase in Inositol Phosphate in Salivary Gland/Control ([7]; 3 mg/kg) [%] | Increase in Inositol Phosphate in Hippocampus/Control ([9]; 3 mg/kg) [%] | rate of metabolism of S- versus R-enantiomer [1]
[2H]C([2H])([2H])c1noc([C@@H]2CCCNC2)n1 [Compound 7b, R-(−)-3-D3-methyl-5-(piperidin-3-yl)-1,2,4-oxadiazole] | metabolized significantly less in human liver microsomes than in rat liver microsomes | 86 | +/− (+/− potency 0.5-2x CCh) | 90 | + (+ potency 2-10x CCh) | – | – | – | – | – | – | – | – | – | – | – | – | –
[2H]C([2H])([2H])c1noc(C23CNCC2C3)n1 (stereo not shown) [Compound 138, 5-(3-azabicyclo[3.1.0]hexan-1-yl)-3-methyl-d3-1,2,4-oxadiazole] | – | – | – | – | – | 93 | 1.34 | 43 | 0.37 | 4.1 | 29 | 217 | 5.5 | 357 | – | – | – | –
[2H]C([2H])([2H])c1noc(C23CNC([2H])([2H])C2C3)n1 (stereo not shown) [Compound 137, 5-(6,6-d2-3-azabicyclo[3.1.0]hexan-1-yl)-3-methyl-1,2,4-oxadiazole] | – | – | – | – | – | 97 | 1.26 | 62 | 0.19 | – | 24 | – | 5.5 | – | 4.00 ×10^6 | 198 | 503 | –
Cc1noc([C@H]2CCCNC2)n1 [Compound 3a, S-(+)-3-methyl-5-(piperidin-3-yl)-1,2,4-oxadiazole] | metabolized significantly less in human liver microsomes than in rat liver microsomes | 66 | +/− (+/− potency 0.5-2x CCh) | 129 | + (+ potency 2-10x CCh) | – | – | – | – | – | – | – | – | – | – | – | – | metabolized faster than the R-enantiomers
[2H]C([2H])([2H])c1noc([C@H]2CCCNC2)n1 [Compound 7a, S-(+)-3-D3-methyl-5-(piperidin-3-yl)-1,2,4-oxadiazole] | metabolized significantly less in human liver microsomes than in rat liver microsomes | 76 | −− (−− potency <0.1x CCh) | 81 | +/− (+/− potency 0.5-2x CCh) | – | – | – | – | – | – | – | – | – | – | – | – | metabolized faster than the R-enantiomers
Cc1noc([C@@H]2CCCNC2)n1 [Compound 3b, R-(−)-3-methyl-5-(piperidin-3-yl)-1,2,4-oxadiazole] | metabolized significantly less in human liver microsomes than in rat liver microsomes | 47 | − (− potency <0.5-0.1x CCh) | 147 | +/− (+/− potency 0.5-2x CCh) | – | – | – | – | – | – | – | – | – | – | – | – | –
